Measurements taken from patent US20240376080A1, “COMPOUND AS TYK2/JAK1 PSEUDOKINASE DOMAIN INHIBITOR, AND SYNTHESIS AND USE METHODS” (ZHEJIANG WENDA PHARMACEUTICAL TECHNOLOGY CO., LTD., priority 2021, published 2024).

Legend:
TYK2 (JH1) = TYK2 (JH1) (Homo sapiens (Human), UniProt P29597); assay: Kinase (JH1) experiment, TYK2; assay type: biochemical; conditions: kinase domain
Protocol: 1.2. Kinase (JH1) Experiment Operation was as Follows:
1.2.1. Dissolve the compound with DMSO to a storage concentration of 10 mM.
1.2.2. Prepare a compound with a concentration of 100 times the final concentration in a compound dilution plate by diluting it from the highest concentration point for a total of 4 concentration points using a 27 times dilution method, and transfer it to the Echo plate.
1.2.3. Use an Echo instrument to pulse the compound from the Echo plate to a 384 experimental plate, thereby obtain the compound with 11 concentration points of the 3-fold dilution matrix.
1.2.4. Configure a 2× kinase working solution and add it to a 384-well experimental plate at 5 uL per well. Incubate the compound and the kinase at room temperature for 15 minutes.
1.2.5. Add 5 ul 2× substrate (containing ATP) to the 384 well plate.
1.2.6. Incubate at room temperature for 45 minutes.
1.2.7. Add the detection reagent mixture to the 384-well plate, centrifuge for 30 seconds, and incubate at room temperature for 60 minutes.
1.2.8. Read the signal values using Envision Microplate Reader (PerkinElmer).
1.3.1. Use XL-Fit software for data analysis to obtain IC50 of the compounds, see Table 2 for results.

[1] = system: IFN-α/pSTAT5 in CD3+ cells (human PBMC); assay: Inhibitory effect on expression of pSTAT5 in CD3+ cells using FACS detection (IFN-α stimulated); assay type: cell-based; conditions: IFN-α 30 ng/ml
Protocol: Test Example 1: The Inhibitory Effect of Compounds on the Expression of pSTAT5 in CD3+Cells Using FACS Detection
• DMSO, Sigma, Cat #D2650-100 mL, stored at room temperature. • Perm buffer III, BD Biosciences, Cat #558050, stored at 4° C. • Lyse/Fix buffer, BD Biosciences, Cat #558049, stored at room temperature. • EDTA, Invitrogen, Cat #15575-038, stored at room temperature. • PBS, Hyclone, Cat #SH30256.01, stored at 4° C. • PE Mouse Anti-Human CD3, BD Biosciences, Cat #555333, stored at 4° C. • Mouse anti-human Phosphorylation-STAT5 (pY694) (Alexa Fluor® 647 Conjugate), BD Biosciences, Cat #562076, stored at 4° C. • IFN-α, Biolegend, Cat #592702
1) On the day of experiment, the compound was prepared into a 10 mM solution with DMSO, diluted to 1.5 mM in DMSO, and then diluted to 8 gradient concentrations in 3-fold dilutions.
2) 5 μL of the diluted compound was transferred into 120 ul of DPBS solution containing 0.1% BSA.
3) Positive and negative control groups were set up, with the addition of 0.2% DMSO to the positive and negative control groups.
1) Add 0.5 million and 67.5 uL of human PBMC cells to each well of the 96-well cell culture plate.
2) Add 3.5 uL of diluted compound and mix well.
3) Incubate in a 37° C. incubator for 60 minutes.
4) Dilute IFN-alpha in DPBS containing 0.1% BSA to 600 ng/mL, and dilute PE-anti-hCD3 antibody in DPBS containing 0.1% BSA to 3 fold. After the above incubation for 60-minute, add diluted PE-anti-hCD3 antibody at 5 uL per well and add diluted IFN-α at 4 uL per well, i.e., the final concentration of IFN-α per well was 30 ng/ml.
5) Incubate in a 37° C. incubator for 30 minutes.
6) Transfer all cells to a 96-well deep well plate and add 1 mL of 37° C. preheated lysis/fix buffer.
7) Incubate at 37° C. in dark for 10 minutes.
8) Centrifuge at 600 g for 5 minutes and then discard the supernatant. Wash by adding 1 mL of PBS for twice and centrifuge.
9) Add 1 mL of Perm buffer III to the cell precipitation.
10) Incubate at 4° C. in dark for 30 minutes.
11) Centrifuge at 600 g for 5 minutes and then discard the supernatant. Wash by adding 1 mL of PBS for twice and centrifuge.
12) Dilute APC anti-human pSTAT5 antibody in staining buffer for 200 fold, and add it to cell well at 100 uL per well and mix well.
13) Incubate at room temperature for 40 minutes.
14) Wash twice by adding staining buffer with 1 mL for each well, and centrifuge at 600 g for 5 minutes.
15) Discard the supernatant, and re-suspend the cell precipitation in 300 uL of staining buffer.
16) Sample and analyze in a flow cytometer to obtain the IC50 of the samples to be tested, Table 1.

TYK2 (JH1), sequence (P29597 897-1176): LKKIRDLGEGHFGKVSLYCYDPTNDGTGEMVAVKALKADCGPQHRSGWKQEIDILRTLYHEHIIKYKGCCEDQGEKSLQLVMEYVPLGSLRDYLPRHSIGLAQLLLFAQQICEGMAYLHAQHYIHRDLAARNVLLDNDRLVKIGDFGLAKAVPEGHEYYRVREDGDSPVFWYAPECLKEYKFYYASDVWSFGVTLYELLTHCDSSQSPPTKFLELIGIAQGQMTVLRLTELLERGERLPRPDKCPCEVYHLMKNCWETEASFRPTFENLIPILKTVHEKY

Row | SMILES | IC50 (TYK2 (JH1)) [µM] | IC50 [1] [nM]
1 | [2H]C([2H])([2H])NC(=O)c1nnc(NC(=O)[C@@H]2CC23CC3)cc1Nc1cccc(-c2ncn(C)n2)c1OC [Compound 1R] | > 9.95 | 6.3
2 | [2H]C([2H])([2H])NC(=O)c1nnc(NC(=O)[C@H]2CC23CC3)cc1Nc1cccc(-c2ncn(C)n2)c1OC [Compound 1S] | > 9.95 | 4.2
3 | [2H]C([2H])([2H])NC(=O)c1nnc(NC(=O)[C@H]2CC23CC3)cc1Nc1cccc(-c2noc(COC)n2)c1OC [Compound 3S] |  | 22.8
4 | [2H]C([2H])([2H])NC(=O)c1cnc(NC(=O)[C@@H]2CC23CC3)cc1Nc1cccc(-c2ncn(C)n2)c1OC [Compound 4R] | > 9.95 | 5.3
5 | [2H]C([2H])([2H])NC(=O)c1cnc(NC(=O)[C@H]2CC23CC3)cc1Nc1cccc(-c2ncn(C)n2)c1OC [Compound 4S] | > 9.95 | 4.1
6 | [2H]C([2H])([2H])NC(=O)c1nnc(NC(=O)C2CC23CC3)cc1Nc1nccc(-c2noc(COC)n2)c1OC (centres unmarked) [Compound 5] |  | 13

Continued, in another order:

Row | IC50 (TYK2 (JH1)) [µM] | SMILES | IC50 [1] [nM]
7 | > 9.95 | [2H]C([2H])([2H])NC(=O)c1nnc(NC(=O)[C@@H]2CC23CC3)cc1Nc1nccc(-c2ncn(C)n2)c1OC [Compound 2R] | 5.7
8 | > 9.95 | [2H]C([2H])([2H])NC(=O)c1nnc(NC(=O)[C@H]2CC23CC3)cc1Nc1nccc(-c2ncn(C)n2)c1OC [Compound 2S] | 3.9
